Measured values reported in patent US20110217715A1, “GENE EXPRESSION IN DUCHENNE MUSCULAR DYSTROPHY” (CHILDREN'S HOSPITAL MEDICAL CENTER, priority 2008, published 2011).

Tested on: mRNA expression in peripheral blood of individuals with DMD
Test: Whole-blood gene expression microarray: DMD administered deflazacort vs DMD administered prednisone
Format: in vivo, human
Experimental: Fifteen ml of blood was collected from each individual into 6 PAXgene® Vacutainer® tubes (PreAnalytiX, Germany) by antecubital fossa venipuncture. PAXgene® tubes contain a proprietary reagent that immediately stabilizes RNA, thus reducing RNA degradation and minimizing gene expression changes following phlebotomy. The tubes were then inverted 20 times, then remained undisturbed for 2 h at room temperature (about 19° C. to about 22° C.), and then stored at -70° C. until processed. Total RNA was isolated using the Paxgene® blood RNA kit (PreAnalytiX, Germany) according to the manufacturers instructions. The RNA isolated is from all cells in whole blood. Typical yields of total RNA isolated from about 7.5 ml of human whole blood were between 10 μg RNA and 40 μg RNA. RNA quality and purity was analyzed by spectrophotometry using the Nanodrop ND-1000, and RNA integrity was analyzed using the Agilent 2100 Bioanalyzer. […] Sample labeling, hybridization to chips, and image scanning were performed using standard Affymetrix protocols. For each whole blood sample from control individuals and individuals with DMD, total RNA was labeled using the One-Cycle Target Labeling protocol and hybridized to the arrays. […] Double-stranded cDNA synthesis, biotin-labeled cRNA synthesis, and cRNA fragmentation were performed according to the Affymetrix GeneChip Eukaryotic Expression Analysis protocol. The labeled, fragmented cRNA (15 μg) was hybridized at 45° C. overnight. After hybridization, the array was washed and stained. The arrays were scanned with an argon-ion laser at λ=570 nm, with a resolution of 3 μm/pixel (Affymetrix, Inc.). After scanning the array, the raw probe level values for each probe were saved in Affymetrix.cel files. […] Statistical analyses, including t-test analyses, unsupervised hierarchical clustering, and principal component analyses were conducted using Genespring 7.2 software ([…]® 7, Silicon Genetics, Redwood City Calif.). […] Corrections for multiple comparisons used a Benjamini-Hochberg False Discovery Rate (FDR) of 0.05, disclosed in Tang et al., J Cereb Blood Flow Metab 26 (2006) 1089, which is expressly incorporated by reference herein in its entirety. […] Sample processing and array hybridization, probe-level data analysis, and statistical analysis were identical to Example 1.

Work on `CC(=O)OCC(=O)[C@@]12N=C(C)O[C@@H]1C[C@H]1[C@@H]3CCC4=CC(=O)C=C[C@]4(C)[C@H]3[C@@H](O)C[C@@]12C` [deflazacort] yielded a p-value (gene PECAM1, Genbank AA702701, Nucleic Acid No. 2155) of 0.00909, a p-value (gene PECAM1, Genbank M37780, Nucleic Acid No. 2154) of 0.00421 and a p-value (gene PF4V1, Genbank NM_002620, Nucleic Acid No. 2156) of 0.0164. For the same compound, the p-value (gene PFKFB3, Genbank NM_004566, Nucleic Acid No. 2157) was 0.0338, the p-value (gene PHACTR2, Genbank AA551142, Nucleic Acid No. 2158) was 0.039 and the p-value (gene PHACTR2, Genbank NM_014721, Nucleic Acid No. 2159) was 0.0451. The p-value (gene PHCA, Genbank R12678, Nucleic Acid No. 2160) was 0.0221, the p-value (gene PHF21A, Genbank BC015714, Nucleic Acid No. 2161) was 0.0231 and the p-value (gene PHGDHL1, Genbank AF339764, Nucleic Acid No. 2162) was 0.0444. The p-value (gene PIAS1, Genbank AI732802, Nucleic Acid No. 2163) was 0.0349, the p-value (gene PICALM, Genbank AL135735, Nucleic Acid No. 2164) was 0.0165 and the p-value (gene PICALM, Genbank AV722190, Nucleic Acid No. 762) was 0.0363. It also gave a p-value (gene PLEK, Genbank NM_002664, Nucleic Acid No. 2165) of 0.000252, a p-value (gene PLEKHA2, Genbank BF347859, Nucleic Acid No. 886) of 0.0183 and a p-value (gene PLEKHM1, Genbank AB002354, Nucleic Acid No. 2166) of 0.0134. It also gave a p-value (gene PLSCR1, Genbank AI825926, Nucleic Acid No. 2167) of 0.0487, a p-value (gene PLXNB2, Genbank BC004542, Nucleic Acid No. 2168) of 0.0177 and a p-value (gene PPGB, Genbank NM_000308, Nucleic Acid No. 2170) of 0.0193. It also gave a p-value (gene PPIG, Genbank AW970944, Nucleic Acid No. 2171) of 0.011, a p-value (gene PPM1F, Genbank BC013798, Nucleic Acid No. 2172) of 0.0208 and a p-value (gene PPP3CA, Genbank AA532718, Nucleic Acid No. 2173) of 0.0165. For the same compound, the p-value (gene PRKACA, Genbank NM_002730, Nucleic Acid No. 2174) was 0.00184, the p-value (gene PRKAR1A, Genbank AI682905, Nucleic Acid No. 2175) was 0.0262 and the p-value (gene PRKAR2B, Genbank NM_002736, Nucleic Acid No. 1688) was 0.0441. The p-value (gene PRKCD, Genbank NM_006254, Nucleic Acid No. 2176) was 0.0077, the p-value (gene PROK2, Genbank AF182069, Nucleic Acid No. 2177) was 0.0338 and the p-value (gene PSENEN, Genbank NM_018468, Nucleic Acid No. 2178) was 0.0201. The p-value (gene PTGS1, Genbank NM_000962, Nucleic Acid No. 329 (first entry)) was 0.0419, the p-value (gene PTGS1, Genbank NM_000962, Nucleic Acid No. 329 (second entry)) was 0.0226 and the p-value (gene PTGS1, Genbank S36219, Nucleic Acid No. 1667) was 0.0474. For the same compound, the p-value (gene PTGS2, Genbank AY151286, Nucleic Acid No. 2179) was 0.0187, the p-value (gene PTPN12, Genbank AL079909, Nucleic Acid No. 2180) was 0.00163 and the p-value (gene PTPRE, Genbank AA775177, Nucleic Acid No. 2181) was 0.0161. It also gave a p-value (gene RAB8A, Genbank BC002977, Nucleic Acid No. 2185) of 0.00561, a p-value (gene RAB11FIP1, Genbank NM_025151, Nucleic Acid No. 2182) of 0.0397 and a p-value (gene RAB11FIP4, Genbank BG248313, Nucleic Acid No. 465) of 0.047. For the same compound, the p-value (gene RAB18, Genbank AU145607, Nucleic Acid No. 2183) was 0.0414, the p-value (gene RAB31, Genbank NM_006868, Nucleic Acid No. 2184) was 0.0378 and the p-value (gene RAC1, Genbank AJ012502, Nucleic Acid No. 551) was 0.0328. The p-value (gene RAI17, Genbank AF070622, Nucleic Acid No. 1313) was 0.0318, the p-value (gene RAP1A, Genbank AW793677, Nucleic Acid No. 2186) was 0.0194 and the p-value (gene RAP80, Genbank AF113675, Nucleic Acid No. 2187) was 0.00717. It also gave a p-value (gene RARA, Genbank AJ417079, Nucleic Acid No. 2188) of 0.00262, a p-value (gene RASA1, Genbank AK021812, Nucleic Acid No. 2189) of 0.0372 and a p-value (gene RBBP5, Genbank NM_005057, Nucleic Acid No. 2190) of 0.0383. For the same compound, the p-value (gene REL, Genbank NM_002908, Nucleic Acid No. 2191) was 0.0166, the p-value (gene RERE, Genbank H71242, Nucleic Acid No. 2192) was 0.0354 and the p-value (gene RFWD2, Genbank BF725688, Nucleic Acid No. 2193) was 0.0334. The p-value (gene RFX2, Genbank AK024288, Nucleic Acid No. 2194) was 0.0472, the p-value (gene RG9MTD3, Genbank AI214944, Nucleic Acid No. 2195) was 0.0449 and the p-value (gene RHOQ, Genbank BC033251, Nucleic Acid No. 2196) was 0.0402. It also gave a p-value (gene RIN3, Genbank AA625133, Nucleic Acid No. 2197) of 0.0322, a p-value (gene RIT1, Genbank AL037450, Nucleic Acid No. 1675) of 0.0214 and a p-value (gene RNF24, Genbank BC000213, Nucleic Acid No. 2198) of 0.0415. The p-value (gene ROCK1, Genbank AL050032, Nucleic Acid No. 2199) was 0.0356, the p-value (gene RSU1, Genbank AW515913, Nucleic Acid No. 2200) was 0.0152 and the p-value (gene RUFY1, Genbank NM_025158, Nucleic Acid No. 2201) was 0.0258. It also gave a p-value (gene RUFY2, Genbank NM_017987, Nucleic Acid No. 2202) of 0.00853, a p-value (gene SEC14L1, Genbank NM_003003, Nucleic Acid No. 2203) of 0.0303 and a p-value (gene SEC23B, Genbank BC005032, Nucleic Acid No. 2204) of 0.0301. For the same compound, the p-value (gene SECTM1, Genbank BF939675, Nucleic Acid No. 2205) was 0.0499, the p-value (gene SERPINA1, Genbank AF119873, Nucleic Acid No. 2207) was 0.0459 and the p-value (gene SERPINA1, Genbank NM_000295, Nucleic Acid No. 2206) was 0.022. The p-value (gene SF3A2, Genbank L21990, Nucleic Acid No. 2208) was 0.0469, the p-value (gene SGK, Genbank NM_005627, Nucleic Acid No. 2209) was 0.028 and the p-value (gene SH3BGRL2, Genbank AL035700, Nucleic Acid No. 1736) was 0.0258. The p-value (gene pp9099, Genbank NM_025201, Nucleic Acid No. 2169) was 0.0311 and the “number of genes significantly up-regulated” value (of the 508 genes, deflazacort compared to prednisone) was 30 genes.
